# Experiments:
# patients with SSc [1] = test: Example 2: brachial artery flow-mediated dilation (FMD), double-blind randomized crossover, BH4 vs placebo; type: in vivo, human
# Text: Methods: Subjects. Eleven subjects with SSc (3 men and 8 women) were recruited from the University of Utah SSc clinic to participate in the current study. All subjects had either a diagnosis of SSc as accepted by the American College of Rheumatology or early SSc as described by Leroy and […]. All subjects gave their written informed consent before participation. Protocol approval and written informed consent were obtained, according to the University of Utah and Salt Lake City Veterans Affairs Medical Center (VAMC) Institutional Review Board, in accordance with the principles outlined in the Declaration of Helsinki. All data collection took place in the Utah Vascular Research Laboratory at the Salt Lake City VAMC Geriatric Research, Education, and Clinical Center. Experimental Design. […] Subjects consumed a standardized breakfast and were administered oral BH4 (10 mg/kg) or placebo five hours prior arrival at the laboratory. Measurements were taken at the same time of day to eliminate any diurnal effects and after having abstained from food (not including the standardized breakfast), alcohol, caffeine, cardiovascular-acting medications, and exercise for ≥12 hours. […] Heart rate was monitored from a standard 3-lead ECG. […] FMD was quantified as the maximal change in BA diameter after cuff release. NMD was quantified as the maximal change in BA diameter after sublingual nitroglycerin supplementation. […] Shear rate was calculated according to the equation: shear rate (s-1)=(Vmean·8)/vessel diameter. Blood flow was calculated as per the equation: blood flow (mL·min)=(blood velocity×π)×(vessel diameter/2)2×(60). Cumulative shear rate cumulative area under the curve at the time of peak BA vasodilation was integrated with the trapezoidal rule and calculated as per the following equation: τ([…]]). Forearm vascular conductance was calculated according to the equation: […]. Forearm vascular resistance was calculated according to the equation: […]. […] Paired, one-tailed t-tests were used to identify significant changes in measured variables between placebo and BH4 conditions. […]
# patients with SSc [2] = test: Example 2: seated brachial artery blood pressure and mean arterial pressure, BH4 vs placebo; type: in vivo, human; conditions: five hours after oral BH4 10 mg/kg
# Description: Experimental Design. A controlled, randomized, double-blind, crossover experimental design with two conditions, BH4 and placebo, was used, with a washout period of ≥5 days between conditions. Subjects consumed a standardized breakfast and were administered oral BH4 (10 mg/kg) or placebo five hours prior arrival at the laboratory. Measurements were taken at the same time of day to eliminate any diurnal effects and after having abstained from food (not including the standardized breakfast), alcohol, caffeine, cardiovascular-acting medications, and exercise for ≥12 hours. In premenopausal women, measurements were performed during the early follicular phase of the menstrual cycle.
# Blood Pressure. Seated BA blood pressure measurements were made with a semi-automated BP device (Tango+, SunTech, Morrisville, N.C.) in triplicate after 5 min in the upright seated position with the arm at heart level and under quiet, comfortable, ambient (˜22° C.) laboratory conditions. Mean arterial pressure (MAP) was calculated using the equation: ⅓ systolic blood pressure+⅔ diastolic blood pressure.
# Statistics. Statistics were performed using SPSS software (IBM, Chicago, Ill.). Paired, one-tailed t-tests were used to identify significant changes in measured variables between placebo and BH4 conditions. Statistical significance was set at P<0.05 for all analyses. Unless indicated otherwise, data are presented as Means±SEM.
# patients with SSc [3] = system: patients with SSc
# [4] = 11 SSc patients, five hours after oral BH4 10 mg/kg, P<0.05
# [5] = one SSc subject, BH4 vs placebo, data not shown
smiles,measurement,setting,value
"C[C@H](O)[C@H](O)[C@H]1CNc2nc(N)[nH]c(=O)c2N1 [BH4, tetrahydrobiopterin]","absolute FMD, improvement vs. placebo",patients with SSc [1]; [4],44%
same,"percentage FMD, improvement vs. placebo",patients with SSc [1]; [4],48%
same,FMD value in the BH4 condition,"patients with SSc [1]; second study, placebo FMD 3.2%, corresponds to highest tertile of FMD",5.6%
same,casual seated diastolic blood pressure,"patients with SSc [2]; Means ± SEM, P>0.05 vs placebo",68±2 mmHg
same,casual seated systolic blood pressure,"patients with SSc [2]; Means ± SEM, P>0.05 vs placebo",109±5 mmHg
same,"MAP, difference in the BH4 condition compared to placebo",patients with SSc [2]; P<0.05 vs placebo,~−2 mmHg
same,blood pressure,"patients with SSc [3]; human, in vivo",125/77
same,"FMD, increase compared to placebo","patients with SSc [3]; one SSc subject, BH4 vs placebo, FIG. 7A",73%
same,"peak hyperemia, increase compared to placebo","patients with SSc [3]; one SSc subject, BH4 vs placebo, FIG. 7B",63%
same,"area under the curve for hyperemia, increase compared to placebo","patients with SSc [3]; one SSc subject, BH4 vs placebo, FIG. 7C",~160%
same,"resting blood flow in the forearm, increase compared to placebo",patients with SSc [3]; [5],~20%
same,"resting blood flow in the leg, increase compared to placebo",patients with SSc [3]; [5],34%

# Source: patent publication US20190076434A1, “METHODS OF TREATING PERIPHERAL VASCULAR DISEASES, INCLUDING SYSTEMIC SCLEROSIS VASCULOPATHY” (UNIVERSITY OF UTAH RESEARCH FOUNDATION, priority 2016, published 2019)
